Test results published in patent US20230002344A1, “NOVEL BENZOTHIOPHENE DERIVATIVES AND USE THEREOF FOR STIMULATING MITOCHONDRIAL TURNOVER” (NIBN, The National Institute For Biotechnology In The Negev …, priority 2019, published 2023).

Experiments:
INS1 cells = assay: Western blot against LC3 (autophagic flux); format: cell-based
Description: The Z-score depicts the standard deviation from the neutral control (DMSO). In FIG. 3C: Mitochondrial mass in INS1 cells treated for 18 hours with either DMSO (control), Urolithin A (25 μM), SPB08007 (“SBP”) (25 μM) or MWP00839 (“MWP”) (11.5 μM) and then stained with Mitotracker green (200 nM). In FIG. 3D: SPB08007 and MWP00839 increase the number of mitochondria inside autolysosomes. INS1 cells expressing mCherry-GFP were exposed to SPB08007, MWP00839, and DMSO for 8 hours and then subjected to confocal microscopy. The area of red fluorescence in the taken images was determined. N=3+/−SEM pANOVA<0.05. FIG. 3E provides representative images. […] FIG. 3F provides the Western blot against LC3 in INS1 cells treated with the compounds in presence or absence of bafilomycin (+b) for the last 2 hours.

[1] = test system: INS1 cells expressing MitoTimer; assay: MitoTimer red/green ratio high-content screen and dose-response; format: cell-based
Description: INS1 cells were stably transduced with MitoTimer by lentiviral infection and were tested using known modulators of autophagy. The paradigm used was based on previous reports showing that the shift in emission from green to red occurs within 18 hours. Assuming that this shift is constant, changes in red FI occurring during this frame of time can result from an effect on MitoTimer clearance and not from an effect on synthesis. The paradigm employed consisted therefore of a treatment lasting 18 hours followed by imaging.
Stimulators of mitochondrial clearance were defined as those inducing a red-to-green FI below −3 and a red intensity below −5.1. Suppressors of mitochondrial clearance were defined as those inducing a red-to-green FI above 10.34 and a red intensity above 4.5. […] Compounds displaying high green FI (above 15) were also discarded to prevent the inclusion of autofluorescent molecules. Only molecules that filled the above criteria in both duplicates were further tested.
The screen was performed during 8 sessions in Weizmann institute. All compounds were tested at a concentration of 10 μM, in duplicates. The images were processed to reduce background (using Metamorph software) and then analyzed in GeneData software.
We subjected those compounds to a dose-response assay (concentrations: 10, 3.33, 1.11, 0.37 and 0.12 μM).
MitoTimer expressing INS1 cells generation, Cell Culture and treatments. MitoTimer-reporter was cloned into the pHAGE2 lenti-vector under the full-length EF1-alpha promoter to obtain constitutive expression. For the HCS, INS1 cells were infected with lentivirus carrying mitochondrial complex-I-targeted-MitoTimer plasmid. Highly expressing cells were selected by high speed fluorescence activated cell sorter (SY3200 cell sorter, Synergy, iCyt) and kept by the addition of puromycin (1 mg . L-1) in the cell media. Cells were thawed before each experiment, and MitoTimer expression checked through fluorescence.
High-Content Screening. […] HCS assay was developed at the Drug Discovery Unit, INCPM, Weizmann Institute of Science. […] Briefly, cells were treated with 10 uM of each compounds for 18 h and imaged in two wavelengths (FITC—excitation […], emission 520/35 nm and TRITC—excitation 543/22 nm, emission 593/40 nm) at ImageXpress Micro High-Content Imaging System/Molecular Devices. Rapamycin 100 nM was used as a control. In each cell plate, the neutral (DMSO) and positive control (Rapamycin) were repeated in 16 replicates while the treatments were performed in duplicates. Each plate was replicated and only hits found in the 2 independent plates were considered. Two fields of each well were analyzed, what normally allowed the analysis of 20-40 cells per condition. MitoTimer red/green ratio for every cell was done in MetaXpress. […] The compounds which affected MitoTimer red/green ratio in a dose response, ranging from […], were classified as a hit.
Individual cells were identified using the red channel, and red and green MitoTimer fluorescence were analyzed and ratio determined per cell.

CC(=O)N/C(=C\c1sc2ccccc2c1C)C(=O)O [SPB08007]
autophagy (LC3II, with or without bafilomycin) (INS1 cells): increase in autophagy | red/green MitoTimer ratio ([1]; 10 uM, INS1 cells): reduced | MitoTimer green readout ([1]; 50 uM dose): increase | maximum reduction on the ratio index (MitoTimer red/green) ([1]; 50 uM dose, 18 h, vs DMSO): 40% | optimal dose for stimulating a reduction in red-to-green FI ([1]; INS1 cells, 18 h): 25 µM | activity (MitoTimer red-to-green FI, Z-score vs DMSO) ([1]; INS1 cells, 18 h, dose-response): −3.018 | EC50 ([1]; Rattus norvegicus, INS1 cells, 18 h, dose-response, read-out: qEC50): 49 µM
